Results reported in article PMC7581279 (Journal of medicinal chemistry, 2013).

Molecular target: HIV-1 RT-associated RNase H activity (Human immunodeficiency virus type 1 group M subtype B, UniProt P04585)
Assay: biochemical
Details: not given

SMILES	IC50
CCOC(=O)C(=O)CC(=O)/C=C/c1cccn1Cc1ccccc1OC [7m, 6-[1-(2-Methoxyphenyl)methyl-1H-pyrrol-2-yl]-2,4-dioxo-5-hexenoic Acid Ethyl Ester]	> 100 µM
CCOC(=O)C(=O)CC(=O)/C=C/c1cccn1Cc1ccccc1OCC [7o, 6-[1-(2-Ethoxyphenyl)methyl-1H-pyrrol-2-yl]-2,4-dioxo-5-hexenoic Acid Ethyl Ester]	> 100 µM

System: RT-associated DNA polymerase function
Assay: not given
Details: cited from earlier work

SMILES	activity against RT-associated DNA polymerase function
CCOC(=O)C(=O)CC(=O)/C=C/c1cccn1Cc1ccc(F)cc1 [7g, 6-[1-(4-Fluorophenyl)methyl-1H-pyrrol-2-yl]-2,4-dioxo-5-hexenoic Acid Ethyl Ester]	inactive

System: HIV-1 (IIIB) in MT-4 cells
Assay: not given
Details: HIV-1-induced cytopathic effect in MT-4 cells

SMILES	activity in the CPE assay
CCOC(=O)C(=O)CC(=O)/C=C/c1cccn1Cc1ccccc1 [7a, 6-[1-(Phenyl)methyl-1H-pyrrol-2-yl]-2,4-dioxo-5-hexenoic Acid Ethyl Ester]	antiviral
O=C(/C=C/c1cccn1Cc1ccc(Cl)cc1)CC(=O)C(=O)O [8i, 6-[1-(4-Chlorophenyl)methyl-1H-pyrrol-2-yl]-2,4-dioxo-5-hexenoic Acid]	inactive
CCOC(=O)C(=O)CC(=O)/C=C/c1cccn1Cc1ccccc1F [7e, 6-[1-(2-Fluorophenyl)methyl-1H-pyrrol-2-yl]-2,4-dioxo-5-hexenoic Acid Ethyl Ester]	antiviral
O=C(/C=C/c1cccn1Cc1ccccc1)CC(=O)C(=O)O [8a, 6-[1-(Phenyl)methyl-1H-pyrrol-2-yl]-2,4-dioxo-5-hexenoic Acid]	antiviral
CCOC(=O)C(=O)CC(=O)/C=C/c1cccn1Cc1cccc(F)c1 [7f, 6-[1-(3-Fluorophenyl)methyl-1H-pyrrol-2-yl]-2,4-dioxo-5-hexenoic Acid Ethyl Ester]	antiviral
CCOC(=O)C(=O)CC(=O)/C=C/c1cccn1Cc1ccc(F)cc1 [7g, 6-[1-(4-Fluorophenyl)methyl-1H-pyrrol-2-yl]-2,4-dioxo-5-hexenoic Acid Ethyl Ester]	antiviral
O=C(/C=C/c1cccn1Cc1ccc(F)cc1)CC(=O)C(=O)O [8g, 6-[1-(4-Fluorophenyl)methyl-1H-pyrrol-2-yl]-2,4-dioxo-5-hexenoic Acid]	antiviral

Molecular target: recombinant HIV-1 IN ST activity (Human immunodeficiency virus type 1 group M subtype B, UniProt P04585)
Assay: biochemical
Details: not given

SMILES	IC50
CCOC(=O)C(=O)CC(=O)/C=C/c1cccn1Cc1ccc(C#N)cc1 [7l, 6-[1-(4-Cyanophenyl)methyl-1H-pyrrol-2-yl]-2,4-dioxo-5-hexenoic Acid Ethyl Ester]	> 111 µM
CCOC(=O)C(=O)CC(=O)/C=C/c1cccn1Cc1ccc(Cl)cc1Cl [7w, 6-[1-(2,4-Dichlorophenyl)methyl-1H-pyrrol-2-yl]-2,4-dioxo-5-hexenoic Acid Ethyl Ester]	> 111 µM
